Legend:
Aβ42 oligomers = target: T1, Aβ42 oligomers (Homo sapiens, UniProt P05067); assay: Ca2+ influx assay (lipid vesicle disruption by aggregates); format: biochemical; settings: 2 μM Aβ42; 5-fold excess added at 0 h; measured at 2 h
T1 construct: […]; made in house; host or cells: E. coli BL21 Gold (DE3)
Protocol: Single vesicles tethered to PLL-PEG coated borosilicate glass coverslides (VWR International, 22×22 mm, product number 63 1-0122) were placed on an oil immersion objective mounted on an inverted Olympus IX-71 microscope. Each coverslide was affixed at Frame-Seal incubation chambers and was incubated with 50 μL of HEPES buffer of pH 6.5. Just before the imaging, the HEPES buffer was replaced with 50 μL Ca^2+ containing buffer solution L-15. 16 (4×4) images of the coverslide were recorded under three different conditions (background, in the presence of Aβ42 and after addition of ionomycin (Cambridge Bioscience Ltd, Cambridge, UK), respectively). The distance between each field of view was set to 100 μm, and was automated (bean-shell script, Micromanager) to avoid any user bias. After each measurement the script allowed the stage (Prior H117, Rockland, Mass., USA) to move the field of view back to the start position such that identical fields of view could be acquired for the three different conditions. Images of the background were acquired in the presence of L15 buffer. For each field of view 50 images were taken with an exposure time of 50 ms. […] The recorded images were analysed using ImageJ to determine the fluorescence intensity of each spot under the three different conditions in the presence of an aggregation mixture incubated with and without Netoglitazone.

[1] = target: A1340 (40-residue isoform of Aβ) (Homo sapiens, UniProt P05067); assay: A1340 aggregation kinetics; settings: 10 μM A1340; 1.25-fold excess
GMC101 (Aβ worms) = assay: NIAD-4 plaque staining in living Aβ worms; format: in vivo, C. elegans
Protocol: Plaques staining was carried out as previously described (J. Habchi et al. (2016); M. Perni et al., A natural product inhibits the initiation of α-synuclein aggregation & suppresses its toxicity. Proc. Natl. Acad. Sci. U.S.A. 114, E1009-E1017 (2017)). Briefly, live transgenic animals were incubated with NIAD-4 over a range of concentrations and times, with 1 μM NIAD-4 (0.1% DMSO in M9 buffer) for 4 hours at room temperature. After staining, animals were allowed to recover on NGM plates for about 24 hours to allow destaining via normal metabolism. Stained animals were mounted on 2% agarose pads containing 40 mM NaN3 as anaesthetic on glass microscope slides for imaging. Images were captured with a Zeiss Axio Observer D1 fluorescence microscope (Carl Zeiss Microscopy GmbH) with a 20× objective and a 49004 ET-CY3/TRITC filter (Chroma Technology Corp). Fluorescence intensity was calculated using ImageJ software (National Institutes of Health) and then normalized as the corrected total cell fluorescence. Only the head region was considered because of the high background signal in the guts. All experiments were carried out in triplicate, and the data from one representative experiment are shown. Statistical significance was determined using t tests.

Aβ42 fibrils = target: T2, Aβ42 fibrils (Homo sapiens, UniProt P05067); assay: Dot-blot assay with fibril-specific OC antibody; format: biochemical; settings: 2 μM Aβ42; 5-fold excess of compound; eight time points
T2 construct: […]; made in house; host or cells: E. coli BL21 Gold (DE3)
Protocol: Blotting was performed using Aβ42 fibril-specific antibody (OC, Millipore). During the time course of the aggregation of a 2 μM Aβ42 in the absence and in the presence of 5-fold excess of Netoglitazone, 4 μL Aβ42 aliquots were removed from the mixture at different time points for blotting with OC. Aβ42 aliquots were spotted onto a nitrocellulose membrane (0.2 μm, Whatman) and then the membranes were dried and then blocked with Blocking One (Nacalai tesque) before immuno-detection. OC was used according to the manufacturer's instructions. Alexa Fluor® 488-conjugated secondary antibodies (Life technologies) were subsequently added and fluorescence detection was performed using Typhoon Trio Imager (GE Healthcare).

N2 healthy control worms = assay: Automated motility assay, healthy worms; format: in vivo, C. elegans; settings: same concentration range; compared with effect in Aβ worms
Protocol: N2 C. elegans var. Bristol used as controls (also labelled “healthy”). Generation time is about 3 days. Brood size is about 350, wild type phenotype, sub-cultured in 1973 (S. Brenner, The genetics of Caenorhabditis elegans. Genetics. 77, 71-94 (1974)).
Briefly, Netoglitazone stocks (5 mM in 100% DMSO) were used at an appropriate concentration to seed 9-cm NGM plates. Plates were then placed in a laminar flow hood at room temperature (22° C.) for up to 4 hours to dry. C. elegans cultures were then transferred onto media seeded with compound as L4 stage or Day 3 for late treatments and incubated at 24° for the whole experiment. […]
(§1) All C. elegans populations were cultured at 20° C. and developmentally synchronized from a 4 h egg-lay. At 64-72 h post-egg-lay (time zero), individuals were transferred to FUDR plates, and body movements were assessed over the times indicated. At different ages, the animals were washed off the plates with M9 buffer and spread over an OP-50 unseeded 9 cm plate, after which their movements were recorded at 20 fps using a recently developed microscopic procedure (M. Perni et al., Massively parallel C. elegans tracking provides multi-dimensional fingerprints for phenotypic discovery. J. Neurosci. Methods. 306, 57-67 (2018)) for 1 min. Up to 600 animals were counted in each experiment in duplicate unless stated otherwise. […]

Aβ42 = target: T3, Aβ42 (Homo sapiens, UniProt P05067); assay: Aβ42 aggregation kinetics in human CSF; format: biochemical; settings: 66% CSF; 1.25 and 5-fold excess
T3 construct: […]; made in house; host or cells: E. coli BL21 Gold (DE3)
Protocol: For the experiments of Aβ42 aggregation kinetics in human CSF, monomeric solutions of 3 μM Aβ42 were prepared similar to above with the only exception that the buffer was 20 mM Hepes, pH 8 supplemented with 1 mM CaCl2 at 150 mM NaCl. The obtained monomer was diluted with the […] in order to reach 66% final concentration of CSF, in which the effect of CSF is close to maximum. Aβ42 aggregation kinetics were performed in the absence and the presence of 1.25 and 5-fold excess of Netoglitazone.

[2] = system: CL2355 (Aβ1-42Neur worms); assay: Automated motility assay, Aβ1-42Neur worms; format: in vivo, C. elegans; settings: compared to untreated worms
Protocol: Briefly, Netoglitazone stocks (5 mM in 100% DMSO) were used at an appropriate concentration to seed 9-cm NGM plates. Plates were then placed in a laminar flow hood at room temperature (22° C.) for up to 4 hours to dry. C. elegans cultures were then transferred onto media seeded with compound as L4 stage or Day 3 for late treatments and incubated at 24° for the whole experiment. Experiments were carried out at different Netoglitazone concentrations ranging from 0.05 to 500 μM in 1% DMSO. As controls, plates seeded only with 1% DMSO were used.
as §1

Sequence of A1340 (40-residue isoform of Aβ) (P05067 672-711 limits assumed): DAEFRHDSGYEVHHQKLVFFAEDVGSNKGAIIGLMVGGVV
T2 sequence (P05067 671-713): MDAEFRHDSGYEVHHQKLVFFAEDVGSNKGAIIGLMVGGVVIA
T3 sequence (P05067 671-713): as above
T1 sequence (P05067 671-713): as above

`O=C1NC(=O)C(Cc2ccc3cc(OCc4ccccc4F)ccc3c2)S1` (centres unmarked) [Netoglitazone] was tested. Which “protection against vesicle disruption (Ca2+ influx) by Aβ42 species” value (Aβ42 oligomers) did it give?
The value was “protected against the neurotoxic species-induced vesicle disruption”.

What about the “inhibition of A1340 aggregation” value [1] of the same compound?
The value was “able to inhibit A1340 aggregation”.

What about the “plaques load (NIAD-4 fluorescence)” value (GMC101 (Aβ worms); 0.5 μM, treatment at L4, day 6 of adulthood) of the same compound?
Its value is “significantly decrease the plaques load”.

And the “plaques load after late administration” value (GMC101 (Aβ worms); administered at D3 of adulthood, measured at D6)?
The value was “significant decrease of the plaques load”.

What about the “delay of Aβ42 fibril formation in dot blot assay compared with ThT-based assay” value (Aβ42 fibrils) of the same compound?
Its value is “identical within experimental error”.

And the “effect on mobility of healthy worms” value (N2 healthy control worms)?
The value was “negligible”.

What about the “delay of Aβ42 aggregation kinetics in 66% human CSF” value (Aβ42) of the same compound?
The value was “significantly delayed the aggregation kinetics”.

What about the “motility of Aβ1-42Neur worms” value [2] of the same compound?
Its value is “significantly improves the motility”.

Source: patent US20210145802A1, “THERAPY FOR OPHTHALMOLOGICAL CONDITIONS” (WREN THERAPEUTICS LIMITED, priority 2018, published 2021)
